Laboratory results from patent US12065436B2, “Cardiac sarcomere inhibitors” (Cytokinetics, Inc., priority 2018, dated 2024).

Molecular target: bovine cardiac myofibrils (full-length cardiac myosin ATPase in the native sarcomere) (Bos taurus (Bovine), UniProt Q9BE39)
Assay: Skinned bovine cardiac myofibril ATPase assay (PK/LDH-coupled)
Format: biochemical
Details: Ca2+ activating to 75% of maximal rate; for CDMF75 IC15: concentration giving 15% inhibition; for IC50: read-out: CDMF75 IC50
Summary of the method: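 Inhibition of steady-state ATPase read at 340 nm through a PK/LDH-coupled NADH system (0.5 mM NADH, 1.5 mM PEP). Detergent-skinned bovine cardiac myofibrils, 1 mg/mL, were tested at pH 6.8 in PIPES/MgCl2 with 50 μM ATP and calcium adjusted to give pCa50 or pCa75 activation.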

Chain of bovine cardiac myofibrils (full-length cardiac myosin ATPase in the native sarcomere) (Q9BE39 whole entry): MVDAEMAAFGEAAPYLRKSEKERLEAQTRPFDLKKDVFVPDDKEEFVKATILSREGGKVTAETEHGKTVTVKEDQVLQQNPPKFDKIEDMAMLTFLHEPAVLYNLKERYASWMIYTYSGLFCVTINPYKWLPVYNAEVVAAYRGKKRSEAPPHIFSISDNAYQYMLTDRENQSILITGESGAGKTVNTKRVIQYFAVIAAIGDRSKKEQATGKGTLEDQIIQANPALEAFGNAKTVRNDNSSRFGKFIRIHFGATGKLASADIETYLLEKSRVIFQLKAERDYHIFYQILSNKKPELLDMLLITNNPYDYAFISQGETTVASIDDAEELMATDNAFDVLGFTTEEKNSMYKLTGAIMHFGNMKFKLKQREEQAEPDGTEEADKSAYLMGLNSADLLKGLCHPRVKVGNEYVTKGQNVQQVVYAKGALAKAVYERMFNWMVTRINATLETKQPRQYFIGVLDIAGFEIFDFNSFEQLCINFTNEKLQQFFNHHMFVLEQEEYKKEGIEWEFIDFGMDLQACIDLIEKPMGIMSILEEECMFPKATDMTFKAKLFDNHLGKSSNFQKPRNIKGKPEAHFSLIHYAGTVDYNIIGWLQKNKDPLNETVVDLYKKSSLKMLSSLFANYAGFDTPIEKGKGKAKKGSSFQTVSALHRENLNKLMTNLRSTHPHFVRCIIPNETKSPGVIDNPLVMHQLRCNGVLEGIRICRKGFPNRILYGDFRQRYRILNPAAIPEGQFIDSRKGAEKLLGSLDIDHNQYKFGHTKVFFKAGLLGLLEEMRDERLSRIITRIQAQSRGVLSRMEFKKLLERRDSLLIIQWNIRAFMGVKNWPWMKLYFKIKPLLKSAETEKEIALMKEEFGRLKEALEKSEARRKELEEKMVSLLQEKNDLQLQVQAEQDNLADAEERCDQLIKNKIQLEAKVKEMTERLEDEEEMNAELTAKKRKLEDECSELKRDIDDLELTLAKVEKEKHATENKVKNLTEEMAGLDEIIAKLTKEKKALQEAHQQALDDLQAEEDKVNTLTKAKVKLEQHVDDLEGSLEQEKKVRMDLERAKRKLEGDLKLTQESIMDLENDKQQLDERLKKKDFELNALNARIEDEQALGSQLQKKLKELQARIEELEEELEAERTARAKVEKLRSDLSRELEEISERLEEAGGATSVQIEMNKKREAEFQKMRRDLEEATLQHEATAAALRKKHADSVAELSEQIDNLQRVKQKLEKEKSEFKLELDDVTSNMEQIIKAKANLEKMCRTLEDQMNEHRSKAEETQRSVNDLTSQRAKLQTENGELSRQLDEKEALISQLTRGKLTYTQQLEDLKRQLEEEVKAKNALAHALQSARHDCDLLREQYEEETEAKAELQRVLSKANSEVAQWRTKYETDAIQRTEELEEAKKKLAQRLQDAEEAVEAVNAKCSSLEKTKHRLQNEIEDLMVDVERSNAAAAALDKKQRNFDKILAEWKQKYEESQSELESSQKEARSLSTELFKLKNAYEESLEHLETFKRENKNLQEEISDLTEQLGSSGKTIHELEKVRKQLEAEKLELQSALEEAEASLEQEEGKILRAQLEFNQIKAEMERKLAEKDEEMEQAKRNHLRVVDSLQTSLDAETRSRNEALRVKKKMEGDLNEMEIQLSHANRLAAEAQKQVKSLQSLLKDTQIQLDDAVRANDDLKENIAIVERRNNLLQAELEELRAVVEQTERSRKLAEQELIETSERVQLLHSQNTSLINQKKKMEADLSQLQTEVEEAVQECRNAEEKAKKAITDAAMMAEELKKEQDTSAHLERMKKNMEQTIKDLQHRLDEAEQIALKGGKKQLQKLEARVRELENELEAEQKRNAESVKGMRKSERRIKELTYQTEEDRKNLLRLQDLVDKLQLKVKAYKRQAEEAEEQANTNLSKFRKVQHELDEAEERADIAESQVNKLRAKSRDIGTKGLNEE
Chain of bovine cardiac myofibrils (full-length cardiac myosin ATPase in the native sarcomere) (P85100 whole entry partner): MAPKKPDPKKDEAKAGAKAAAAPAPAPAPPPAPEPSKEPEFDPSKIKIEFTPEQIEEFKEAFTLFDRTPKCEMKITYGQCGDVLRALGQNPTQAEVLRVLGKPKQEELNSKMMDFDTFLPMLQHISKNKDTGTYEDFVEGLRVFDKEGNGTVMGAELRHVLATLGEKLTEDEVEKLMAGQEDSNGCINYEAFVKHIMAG
Chain of bovine cardiac myofibrils (full-length cardiac myosin ATPase in the native sarcomere) (Q3SZE5 whole entry partner): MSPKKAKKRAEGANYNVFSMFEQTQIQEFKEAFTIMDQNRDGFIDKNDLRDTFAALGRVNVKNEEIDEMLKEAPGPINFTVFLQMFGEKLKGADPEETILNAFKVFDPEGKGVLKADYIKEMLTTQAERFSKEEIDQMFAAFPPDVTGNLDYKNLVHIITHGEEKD

| CDMF75 IC15 [µM] | IC50 [µM] | SMILES |
| --- | --- | --- |
| 5.8 | 26.6 | COCc1nc(-c2ccc3c(c2)CC[C@H]3NC(=O)c2cccc(CO)c2F)no1 [Compound 670, (R)-2-fluoro-3-(hydroxymethyl)-N-(5-(5-(methoxymethyl)-1,2,4-oxadiazol-3-yl)-2,3-dihydro-1H-inden-1-yl)benzamide] |
| 1.9 | 8 | Cn1nnc(C(=O)NC2COc3cc(-c4noc(C5CC5)n4)ccc32)n1 (stereo not shown) [Compound 234, N-(6-(5-cyclopropyl-1,2,4-oxadiazol-3-yl)-2,3-dihydrobenzofuran-3-yl)-2-methyl-2H-tetrazole-5-carboxamide] |
| 4.4 | 21.3 | COCc1nc(-c2ccc3c(c2)CC[C@H]3NC(=O)c2cc(C)on2)no1 [Compound 690, (R)-N-(5-(5-(methoxymethyl)-1,2,4-oxadiazol-3-yl)-2,3-dihydro-1H-inden-1-yl)-5-methylisoxazole-3-carboxamide] |
| 2.4 | 39.2 | CC(C)c1nc(-c2ccc3c(c2)CC[C@H]3NC(=O)c2nn[nH]n2)no1 [Compound 499, (R)-N-(5-(5-isopropyl-1,2,4-oxadiazol-3-yl)-2,3-dihydro-1H-inden-1-yl)-2H-tetrazole-5-carboxamide] |
| 0.3 | 1.2 | COC(=O)N[C@@H]1CCc2cc(-c3noc(C4CC4)n3)ccc21 [Compound 305, methyl (R)-(5-(5-cyclopropyl-1,2,4-oxadiazol-3-yl)-2,3-dihydro-1H-inden-1-yl)carbamate] |
| 1.4 | 5.7 | CCc1nc(-c2ccc3c(c2)CC[C@H]3NC(=O)c2ccn(CCO)c(=O)c2)no1 [Compound 559, (R)-N-(5-(5-ethyl-1,2,4-oxadiazol-3-yl)-2,3-dihydro-1H-inden-1-yl)-1-(2-hydroxyethyl)-2-oxo-1,2-dihydropyridine-4-carboxamide] |
| 0.5 | 1.8 | Cc1nc(-c2ccc3c(c2)OC[C@H]3NC(=O)c2ccnn2C)no1 [Compound 122, (S)-1-methyl-N-(6-(5-methyl-1,2,4-oxadiazol-3-yl)-2,3-dihydrobenzofuran-3-yl)-1H-pyrazole-5-carboxamide] |
| 0.5 | 1.6 | CCc1nc(-c2ccc3c(c2)CC[C@H]3NC(=O)c2cncc(C)c2)no1 [Compound 626, (R)-N-(5-(5-ethyl-1,2,4-oxadiazol-3-yl)-2,3-dihydro-1H-inden-1-yl)-5-methylnicotinamide] |
| 20.0 | > 39.2 | CC(=O)N1CC[C@@H]1C(=O)N[C@@H]1CCc2cc(-c3noc(C4CC4)n3)ccc21 [Compound 331, (R)-1-acetyl-N-((R)-5-(5-cyclopropyl-1,2,4-oxadiazol-3-yl)-2,3-dihydro-1H-inden-1-yl)azetidine-2-carboxamide] |
| 0.5 | 2.3 | CCc1nc(-c2ccc3c(c2)CC[C@H]3NC(=O)c2ccon2)no1 [Compound 586, (R)-N-(5-(5-ethyl-1,2,4-oxadiazol-3-yl)-2,3-dihydro-1H-inden-1-yl)isoxazole-3-carboxamide] |
| 0.4 | 1.4 | CCc1nc(-c2ccc3c(c2)OC[C@H]3NC(=O)c2cnc(C)o2)no1 [Compound 464, (S)-N-(6-(5-ethyl-1,2,4-oxadiazol-3-yl)-2,3-dihydrobenzofuran-3-yl)-2-methyloxazole-5-carboxamide] |
| 0.9 | 3.2 | Cc1cccc(-c2ccc3c(c2)CC[C@H]3NC(=O)c2ccnn2C)c1 [Compound 373, (R)-1-methyl-N-(5-(m-tolyl)-2,3-dihydro-1H-inden-1-yl)-1H-pyrazole-5-carboxamide] |
| 0.7 | 3.1 | Cc1nc(-c2ccc3c(c2)CC[C@H]3NC(=O)OCC(C)C)no1 [Compound 320, isobutyl (R)-(5-(5-methyl-1,2,4-oxadiazol-3-yl)-2,3-dihydro-1H-inden-1-yl)carbamate] |
| 1 | 3.8 | Cc1cc(-c2ccc3c(c2)CC[C@H]3NC(=O)c2cnn(C)c2)no1 [Compound 402, (R)-1-methyl-N-(5-(5-methylisoxazol-3-yl)-2,3-dihydro-1H-inden-1-yl)-1H-pyrazole-4-carboxamide] |
| 2.8 | 13 | COCc1nc(-c2ccc3c(c2)CC[C@H]3NC(=O)c2cc(CO)ccn2)no1 [Compound 673, (R)-4-(hydroxymethyl)-N-(5-(5-(methoxymethyl)-1,2,4-oxadiazol-3-yl)-2,3-dihydro-1H-inden-1-yl)picolinamide] |
| 30.9 | > 39.2 | O=C1CC[C@H](C(=O)N[C@@H]2CCc3cc(-c4noc(C5CC5)n4)ccc32)N1 [Compound 336, (R)-N-((R)-5-(5-cyclopropyl-1,2,4-oxadiazol-3-yl)-2,3-dihydro-1H-inden-1-yl)-5-oxopyrrolidine-2-carboxamide] |

| CDMF75 IC15 [µM] | IC50 [µM] | SMILES |
| --- | --- | --- |
| 0.6 | 1.9 | Cc1cc(C(=O)N[C@@H]2CCc3cc(-c4noc(C5CC5)n4)ccc32)ccn1 [Compound 389, (R)-N-(5-(5-cyclopropyl-1,2,4-oxadiazol-3-yl)-2,3-dihydro-1H-inden-1-yl)-2-methylisonicotinamide] |
| 0.6 | 2 | CCc1cc(C(=O)N[C@@H]2CCc3cc(-c4noc(CC)n4)ccc32)ccn1 [Compound 660, (R)-2-ethyl-N-(5-(5-ethyl-1,2,4-oxadiazol-3-yl)-2,3-dihydro-1H-inden-1-yl)isonicotinamide] |
| 1.3 | 4.9 | CCc1noc(-c2ccc3c(c2)CC[C@H]3NC(=O)c2cnn(C)c2)n1 [Compound 254, (R)-N-(5-(3-ethyl-1,2,4-oxadiazol-5-yl)-2,3-dihydro-1H-inden-1-yl)-1-methyl-1H-pyrazole-4-carboxamide] |
| 0.5 | 1.6 | Cc1cc(-c2ccc3c(c2)OC[C@H]3NC(=O)c2ccnn2C)no1 [Compound 427, (S)-1-methyl-N-(6-(5-methylisoxazol-3-yl)-2,3-dihydrobenzofuran-3-yl)-1H-pyrazole-5-carboxamide] |
| 0.9 | 3 | [2H]C([2H])([2H])c1nc(-c2ccc3c(c2)CC[C@H]3NC(=O)c2c[nH]nc2C)no1 [Compound 401, (R)-3-methyl-N-(5-(5-(methyl-d3)-1,2,4-oxadiazol-3-yl)-2,3-dihydro-1H-inden-1-yl)-1H-pyrazole-4-carboxamide] |
| 1.3 | 6.2 | Cc1cc(C(=O)N[C@@H]2CCc3cc(-c4nnn(C)n4)ccc32)ccn1 [Compound 147, (R)-2-methyl-N-(5-(2-methyl-2H-tetrazol-5-yl)-2,3-dihydro-1H-inden-1-yl)isonicotinamide] |
| 1.4 | 5.5 | COCc1nc(-c2ccc3c(c2)OC[C@H]3NC(=O)c2ccnc(CO)c2)no1 [Compound 714, (S)-2-(hydroxymethyl)-N-(6-(5-(methoxymethyl)-1,2,4-oxadiazol-3-yl)-2,3-dihydrobenzofuran-3-yl)isonicotinamide] |
| 2.0 | 9.1 | CC(C)c1nc(-c2ccc3c(c2)CC[C@H]3NC(=O)c2cnn(CCO)c2)no1 [Compound 522, (R)-1-(2-hydroxyethyl)-N-(5-(5-isopropyl-1,2,4-oxadiazol-3-yl)-2,3-dihydro-1H-inden-1-yl)-1H-pyrazole-4-carboxamide] |
| 39.2 | > 39.2 | CN1CCN(C(=O)N[C@@H]2CCc3cc(-c4noc(C(F)F)n4)ccc32)CC1 [Compound 302, (R)-N-(5-(5-(difluoromethyl)-1,2,4-oxadiazol-3-yl)-2,3-dihydro-1H-inden-1-yl)-4-methylpiperazine-1-carboxamide] |
| 0.9 | 3.2 | Cc1cc(C(=O)N[C@@H]2COc3cc(-c4noc(C)n4)ccc32)on1 [Compound 346, (S)-3-methyl-N-(6-(5-methyl-1,2,4-oxadiazol-3-yl)-2,3-dihydrobenzofuran-3-yl)isoxazole-5-carboxamide] |
| 5.2 | 24 | CCc1nc(-c2cnc3c(c2)CCC3NC(=O)c2ccnc(C)c2)no1 (stereo not shown) [Compound 108, N-(3-(5-ethyl-1,2,4-oxadiazol-3-yl)-6,7-dihydro-5H-cyclopenta[b]pyridin-7-yl)-2-methylisonicotinamide] |
| 1.8 | 6.6 | Cc1noc(-c2ccc3c(c2)CC[C@H]3NC(=O)c2cnn(C)c2C)n1 [Compound 264, (R)-1,5-dimethyl-N-(5-(3-methyl-1,2,4-oxadiazol-5-yl)-2,3-dihydro-1H-inden-1-yl)-1H-pyrazole-4-carboxamide] |
| 0.4 | 1.5 | Cc1cc(-c2ccc3c(c2)CC[C@H]3NC(=O)c2nnn(C)n2)no1 [Compound 252, (R)-2-methyl-N-(5-(5-methylisoxazol-3-yl)-2,3-dihydro-1H-inden-1-yl)-2H-tetrazole-5-carboxamide] |
| 0.8 | 2.8 | Cc1nc(-c2ccc3c(c2)CC[C@H]3NC(=O)c2c[nH]nc2C)no1 [Compound 400, (R)-3-methyl-N-(5-(5-methyl-1,2,4-oxadiazol-3-yl)-2,3-dihydro-1H-inden-1-yl)-1H-pyrazole-4-carboxamide] |
| 2.0 | 7.2 | Cn1nnc(C(=O)N[C@@H]2COc3cc(-c4noc(C(F)F)n4)ccc32)n1 [Compound 198, (S)-N-(6-(5-(difluoromethyl)-1,2,4-oxadiazol-3-yl)-2,3-dihydrobenzofuran-3-yl)-2-methyl-2H-tetrazole-5-carboxamide] |
| 3.6 | 14.6 | COC(C)c1nc(-c2ccc3c(c2)CC[C@H]3NC(=O)c2cnn(C)c2)no1 (stereo partly drawn) [Compound 551, N-((1R)-5-(5-(1-methoxyethyl)-1,2,4-oxadiazol-3-yl)-2,3-dihydro-1H-inden-1-yl)-1-methyl-1H-pyrazole-4-carboxamide] |
